Structures can show the parent of a compound that is named as a salt. Where two headings read alike, the source gives them in different places.
Experiments:
SUDHL10 [1] = assay: Induction of cytotoxicity (CellTiter-Glo, 5 h), SUDHL10; conditions: Homo sapiens, SU-DHL10, 5 h, read-out: Cytotox SUDHL10 [M] (median), SUDHL10 cells, cytotoxicity induction, CellTiter-Glo, 5 h incubation, median
SUDHL5 [2] = assay: Anti-proliferative effect (CellTiter-Glo, 72 h), SUDHL5; assay type: cell-based; conditions: Homo sapiens, SU-DHL-5, 72 h, SUDHL5 cells, antiproliferation, 72 h incubation, median, read-out: Antiproli SUDHL5 [M] (median)
Summary of the method: (§1)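 After seeding, one plate is read right away by CellTiter-Glo luminescence to fix time zero. The treated plates stay at 37 °C in humidified air for 72 h and are then measured with the same reagent and 10 min incubation.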

SUDHL10 [3] = assay: Anti-proliferative effect (CellTiter-Glo, 72 h), SUDHL10; assay type: cell-based; conditions: Homo sapiens, SU-DHL10, 72 h, SUDHL10 cells, antiproliferation, 72 h incubation, median, read-out: Antiproli SUDHL10 [M] (median)
Method: Assessment of the Anti-Proliferative Effect of Compounds in Different Cell Lines
The impact of compounds on the proliferation of different cell lines was assessed using the CellTiter-Glo® Luminescent Cell Viability reagent from Promega (G7573). Of note, SUDHL10 and SUDHL5 (DLBCL), NCI-H929 (Multiple Myeloma), A2780 (ovarian carcinoma) as well as MV-4-11(AML) cells are sensitive to MCL-1 inhibition.
In parallel, cells were plated in a reference (day 0) plate for time zero determination.
Rim wells were excluded. The cells were incubated for 72 h hours in a humidified incubator at 37° C. The day 0 plate was measured by adding 30 μl/well of CTG solution (CellTiter-Glo® Luminescent Cell Viability reagent, Promega G7573) to time zero wells in the reference plate followed by a 10 minutes incubation and luminescence reading at 0.1 ms, using the PHERAstar FS microplate reader (BMG Labtech).
After 72 h incubation, the treated plates were measured in the same way as the day 0 plate mentioned above.

SUDHL10 [4] = assay: Induction of caspase-3/7 activity (Caspase-Glo 3/7), SUDHL10; assay type: cell-based; conditions: Homo sapiens, SU-DHL10, 3 h, caspase-3/7 induction, SUDHL10 cells, 3 h treatment; median
Summary of the method: (§2)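 Apoptosis induction measured as caspase-3/7 activity (Caspase-Glo 3/7) in DLBCL lines after 3 h treatment at 37 °C; EC50 derived relative to the reference compound's maximal induction, with C0 fixed at 1.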

SUDHL5 [5] = assay: Induction of cytotoxicity (CellTiter-Glo, 5 h), SUDHL5; conditions: Homo sapiens, SU-DHL-5, 5 h, read-out: Cytotox SUDHL5 [M] (median), SUDHL5 cells, cytotoxicity induction, CellTiter-Glo, 5 h incubation, median
MCL-1 = MCL-1 (Homo sapiens, UniProt Q07820); assay: Protein-protein interaction assay MCL-1/Noxa BH3 peptide (MCL-1 assay), TR-FRET; assay type: binding; conditions: MBP-MCL-1 / Noxa BH3-derived peptide, median
Chain of MCL-1 (Q07820 whole entry): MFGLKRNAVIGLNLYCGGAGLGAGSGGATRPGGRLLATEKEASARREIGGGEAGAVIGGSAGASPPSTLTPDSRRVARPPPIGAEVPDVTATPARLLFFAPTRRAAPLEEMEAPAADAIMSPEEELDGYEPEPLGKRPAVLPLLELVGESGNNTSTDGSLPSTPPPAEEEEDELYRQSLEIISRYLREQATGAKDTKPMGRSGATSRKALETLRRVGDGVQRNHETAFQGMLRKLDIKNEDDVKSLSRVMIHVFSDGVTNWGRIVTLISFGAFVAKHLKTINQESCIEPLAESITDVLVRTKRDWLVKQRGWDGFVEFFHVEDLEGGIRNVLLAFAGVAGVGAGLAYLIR
Summary of the method: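 Inhibition values were normalized between DMSO controls with all reagents and controls lacking MCL-1. The binding competition used 1 nM MBP-MCL-1 in pH 7 Tris buffer containing 50 mM KF and 100 mM NaCl, with a 10 min compound preincubation at 22 °C.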

A2780 = assay: Anti-proliferative effect (CellTiter-Glo, 72 h), A2780; assay type: cell-based; conditions: A2780 cells, median, read-out: IC50 antiproliferation assay A2780 [M] (median)
Summary of the method: as §1

SUDHL5 [6] = assay: Induction of caspase-3/7 activity (Caspase-Glo 3/7), SUDHL5; assay type: cell-based; conditions: Homo sapiens, SU-DHL-5, 3 h, caspase-3/7 induction, SUDHL5 cells, 3 h treatment; median
Summary of the method: as §2

IC50 (SUDHL5 [2]) [M] | IC50 (SUDHL10 [3]) [M] | EC50 (SUDHL10 [4]) [µM] | IC50 (MCL-1) [µM] | IC50 (A2780; Homo sapiens, A2780, 72 h) [M] | EC50 (SUDHL5 [6]) [µM] | IC50 (A2780) [M] | Structure (SMILES) | IC50 (SUDHL10 [1]) [M] | IC50 (SUDHL5 [5]) [M]
3.35e-06 | 7.48e-06 | 6.94 | 0.0028 | 2.25e-05 | 1.72 | – | CCc1nn(CCN2CCOCC2)c2c1-c1cccc3c(CCCOc4cccc5ccccc45)c(C(=O)O)n(c13)CCCCOC2 (racemic) [Example 198, (rac)-3-ethyl-1-[2-(morpholin-4-yl)ethyl]-7-[3-(naphthalen-1-yloxy)propyl]-1,10,11,12,13,15-hexahydropyrazolo[4′,3′:9,10][1,6]oxazacycloundecino[8,7,6-hi]indole-8-carboxylic Acid] | 6.77e-06 | 2.05e-06
4.17e-06 | 5.15e-06 | 6.09 | 0.00375 | 1.78e-05 | 1.73 | – | CCc1c2c(nn1CCN1CCOCC1)COCCCCn1c(C(=O)O)c(CCCOc3cccc4ccccc34)c3ccc(C)c-2c31 (racemic) [Example 204, (rac)-3-ethyl-4-methyl-2-[2-(morpholin-4-yl)ethyl]-7-[3-(naphthalen-1-yloxy)propyl]-2,10,11,12,13,15-hexahydropyrazolo[4′,3′:9,10][1,6]oxazacycloundecino[8,7,6-hi]indole-8-carboxylic Acid] | 5.63e-06 | 1.9e-06
5.28e-06 | 7.76e-06 | 11.4 | 0.00681 | 2.47e-05 | 4.85 | – | COc1c2c(nn1C)COCCCCn1c(C(=O)O)c(CCCOc3cccc4ccccc34)c3cccc-2c31 (racemic) [Example 207, (rac)-3-methoxy-2-methyl-7-[3-(naphthalen-1-yloxy)propyl]-2,10,11,12,13,15-hexahydropyrazolo[4′,3′:9,10][1,6]oxazacycloundecino[8,7,6-hi]indole-8-carboxylate] | 1.08e-05 | 4.45e-06
2.49e-06 | 5.12e-06 | > 33 | 0.0134 | 2.91e-05 | > 33 | – | Cn1nc(COC2CC2)c2c1COCCCCn1c(C(=O)O)c(CCCOc3cccc4ccccc34)c3cccc-2c31 (racemic) [Example 213, (rac)-3-[(cyclopropyloxy)methyl]-1-methyl-7-[3-(naphthalen-1-yloxy)propyl]-1,10,11,12,13,15-hexahydropyrazolo[4′3′:9,10][1,6]oxazacycloundecino[8,7,6,6-hi]indole-8-carboxylic Acid] | > 3.3e-05 | > 3.3e-05
9.95e-06 | 1.36e-05 | > 33 | 0.014 | > 3.3e-05 | 12.8 | – | Cn1nc(CC(F)(F)F)c2c1COCCCCn1c(C(=O)O)c(CCCOc3cccc4ccccc34)c3cccc-2c31 (racemic) [Example 219, (rac)-1-methyl-7-[3-(naphthalen-1-yloxy)propyl]-3-(2,2,2-trifluoroethyl)-1,10,11,12,13,15-hexahydropyrazolo[4′,3′:9,10][1,6]oxazacycloundecino[8,7,6-hi]indole-8-carboxylic Acid] | 2.47e-05 | 9.71e-06
8.1e-06 | 1.14e-05 | 16.1 | 0.0262 | > 3.3e-05 | 17.3 | – | Cn1ccnc1COCc1nn(C)c2c1-c1cccc3c(CCCOc4cccc5ccccc45)c(C(=O)O)n(c13)CCCCOC2 (racemic) [Example 231, (rac)-1-methyl-3-{[(1-methyl-1H-imidazol-2-yl)methoxyl]methyl}-7-[3-(naphthalen-1-yloxy)propyl]-1,10,11,12,13,15-hexahydropyrazolo[4′,3′:9,10][1,6]oxazacycloundecino[8,7,6-hi]indole-8-carboxylic Acid] | 1.6e-05 | 1.33e-05
3.15e-05 | 1.98e-05 | 31.6 | 0.0139 | 3.04e-05 | 30.1 | – | Cn1nc2c(c1OC(F)F)-c1cccc3c(CCCOc4cccc5ccccc45)c(C(=O)O)n(c13)CCCCOC2 (racemic) [Example 234, (rac)-3-(difluoromethoxy)-2-methyl-7-[3-(naphthalen-1-yloxy)propyl]-2,10,11,12,13,15-hexahydropyrazolo[4′,3′:9,10][1,6]oxazacycloundecino[8,7,6-hi]indole-8-carboxylic Acid] | > 3.3e-05 | 2.71e-05
5.23e-06 | 5e-06 | 6.42 | 0.00664 | 1.84e-05 | 2.69 | – | Cc1nn(CCN(C)C)c2c1-c1cccc3c(CCCOc4cccc5ccccc45)c(C(=O)O)n(c13)CCCCOC2 (racemic) [Example 244, (rac)-1-[2-(dimethylamino)ethyl]-3-methyl-7-[3-(naphthalen-1-yloxy)propyl]-1,10,11,12,13,15-hexahydropyrazolo[4′,3′:9,10][1,6]oxazacycloundecino[8,7,6-hi]indole-8-carboxylic Acid Trifluoroacetic Acid Salt] | 6.6e-06 | 3.2e-06
5.26e-06 | 9.3e-06 | 17.3 | 0.00615 | 3.04e-05 | 5.21 | > 3.3e-05 | O=C(O)c1c(CCCOc2cccc3ccccc23)c2cccc3c2n1CCCCOCc1nn2c(c1-3)OCCC2 (racemic) [Example 247, (rac)-1-[3-(naphthalen-1-yloxy)propyl]-4,5,6,7,13,14-hexahydro-9H,12H-[1,3]oxazino[3″,2″: 1′,5′]pyrazolo[4′,3′:9,10][1,6]oxazacycloundecino[8,7,6-hi]indole-2-carboxylic Acid] | 1.9e-05 | 6.79e-06
9.3e-06 | 9.7e-06 | 22 | 0.00788 | 2.29e-05 | 10.9 | > 3.3e-05 | O=C(O)c1c(CCCOc2cccc3ccccc23)c2cccc3c2n1CCCCOCc1nn2c(c1-3)COCC2 (racemic) [Example 250, (rac)-1-[3-(naphthalen-1-yloxy)propyl]-4,5,6,7,12,13-hexahydro-9H,15H-[1,4]oxazino[4″,3″:1′,5′]pyrazolo[4′,3′:9,10][1,6]oxazacycloundecino[8,7,6-hi]indole-2-carboxylic Acid] | 2.18e-05 | 1.33e-05
1.5e-05 | 9.2e-06 | > 33 | 0.0425 | 2.03e-05 | > 33 | – | Cc1ccc2c(C(C)CCOc3cccc4ccccc34)c(C(=O)O)n3c2c1-c1c(C)nn(C)c1COCCCC3 (racemic) [Example 256, 1,3,4-trimethyl-7-[4-(naphthalen-1-yloxy)butan-2-yl]-1,10,11,12,13,15-hexahydropyrazolo[4′,3′:9,10][1,6]oxazacycloundecino[8,7,6-hi]indole-8-carboxylic Acid] | > 3.3e-05 | 2.29e-05
1.17e-06 | 4.66e-06 | 3.52 | 0.00373 | 1.85e-05 | 1.77 | – | CCc1nn(C)c2c1-c1c(C)ccc3c(C(C)CCOc4cccc5cc(F)ccc45)c(C(=O)O)n(c13)CCCCOC2 (racemic) [Example 261, 3-ethyl-7-{4-[(6-fluoronaphthalen-1-yl)oxy]butan-2-yl}-1,4-dimethyl-1,10,11,12,13,15-hexahydropyrazolo[4′,3′:9,10][1,6]oxazacycloundecino[8,7,6-hi]indole-8-carboxylic Acid] | 3.8e-06 | 2.02e-06

Source: patent publication US10981932B2, “Macrocyclic indole derivatives” (Bayer Aktiengesellschaft, priority 2016, dated 2021)
